Measured values as given in patent US6541237B1, “A-1,4-glucan lyase and its use in the production of 1.5-androfructose” (Danisco A/S, priority 1994, dated 2003).

Assays:
[1] = Reduction of 3,5-dinitrosalicylic acid; format: physicochemical
[2] = Induction period of yogurt salad dressing with 50% oil
From the text: For each temperature defined as PF=IP of the oil with added antioxidant/IP of the same oil without added antioxidant

[3] = ESR analysis of hydroxyl radical scavenging (Fenton reaction, DMPO spin trap); conditions: for Peak height of ESR-spectra [120 s] / Peak height of ESR-spectra [300 s]: H2O2 0.17 mM, Fe2+ 4.8 μM
Protocol: Hydroxyl radicals were generated by a Fenton reaction with H2O2 (0.17 mM) and FeSO4 (4.8 μM). The generated radicals were trapped by 5,5-dimethyl-1-pyrroline N-oxide (DMPO, 9.7 mM). AF was added in concentrations of 1.3 mM and 6.3 mM. A water soluble extract of rosemary (Rosmarinus officinalis L.) was analyzed in a concentration of 0.25 mg/ml (in grams equivalent to 1.26 mM AF). Measurements were carried out at room temperature (20±1° C.) after 120 s and repeated for the same reaction mixture after 300 s with the following spectrometer settings: Center field 3475.60 G; sweep width 55 G; microwave power 20 mW; modulation frequency 100 kHz; modulation amplitude 1.01 G; receiver gain 1.00·10^5; conversion time 81.92 ms time constant 163.84 ms and sweep time 83.89 s.
The spin adduct gives rise to a characteristic 1:2:2:1 ESR spectrum. The peak height of the spectrum is proportional to the quantitative amount of generated spin adduct. Addition of both DMPO and AF will set up a competition between the spin trap and AF. A reduction of peak height will indicate a good scavenging activity of AF.

[4] = Induction period of 50% mayonnaise in bomb calorimeter; conditions: +500 ppm in mayonnaise; 80° C., pure O2
Protocol: In the test procedure the anti-oxidants were added to the mayonnaise to provide an anti-oxidant concentration in the order of about 500 ppm. The mayonnaise was then placed in a bomb calorimeter at temperature 80° C. containing pure O2. An induction period to the onset of substantial oxidation of the product is then measured.

[5] = test system: α-1,4-glucan lyase; experiment: Formation of AF from amylopectin (HPLC), end-product inhibition; format: biochemical; conditions: equal AF after 30 and 120 min incubation
Protocol: α-1,4-glucan lyase according to the present invention hydrolyses starch to the end-product 1,5-anhydrofructose. The end-product was shown by HPLC, method 2. The enzyme assay contained 500 μl amylopectin (20 mg/ml, dissolved in H2O), 400 μl 0.1 M MES pH 6.3 and 100 μl purified enzyme. The reaction mixture was incubated at 30° C. and the reaction was stopped by boiling after 30 or 120 min incubation. High-molecular oligosaccharides were precipitated by addition of 3 vol abs. ethanol and the sample was centrifuged and freeze-dried as described above. The samples were dissolved in 125 μl H2O and 25 μl were applied on the HPLC column.

[6] = Electrochemical oxygen consumption in methyl linoleate emulsion; conditions: AF 15, 146 and 680 μM; metmyoglobin initiated; 25.0° C.
Protocol: The activity of AF was investigated in a methyl linoleate emulsion as described by Jorgensen and Skibsted (Z. Lebensm. Unters. Forsch. (1993) 196: 423-429) with minor modifications: To 5.00 ml of a 1.33 mM methyl linoleate emulsion in 5.0 mM aqueous phosphate buffer with pH=5.8 and 0.2 w/w % Tween 20 as emulsifier was added AF in the following concentrations: 0, 15, 146 and 680 μM. The oxidation in the system was initiated by addition of 50 μl […] metmyoglobin (MMb) final concentration 0.26 mM. Immediately after initiating the reaction the sample was injected to a thermostated (25.0±0.1° C.) 70 μl closed cell, effectively excluding diffusion of oxygen into the system. The oxygen consumption was measured by a Clark electrode, which was connected to a PC data collection program. The relative oxygen concentration (%) was registered every 30 s.

[7] = Oxidation of AF by air; format: physicochemical; conditions: especially at high temperature, high AF concentration, long exposure
From the text: Catalase is needed to dispel H2O2 formed. H2O2 will oxidize AF into two new compounds which are at present of unknown structure. The other impurities in the AF preparation are the oxidation products of AF. […] Gluconic acid was removed together with the buffer salts by ion exchange chromatography.

O=C1CO[C@H](CO)[C@@H](O)[C@@H]1O [AF, 1,5-D-anhydrofructose]
reducing agent (antioxidant) activity [1]: can easily reduce 3,5-dinitrosalicylic acid | IP hours (Induction Period) ([2]; 500 ppm in yogurt salad dressing): 39.5 h | PF (Protection Factor) ([2]; 500 ppm, IP with antioxidant / IP without): 1.06 | scavenging activity of hydroxyl radicals ([3]; 1.3 mM AF): no scavenging activity | Peak height of ESR-spectra [120 s] ([3]; 1.3 mM AF): 2634 | Peak height of ESR-spectra [300 s] ([3]; 1.3 mM AF): 2545 | scavenging activity of hydroxyl radicals ([3]; 6.3 mM AF): peak height is reduced | Peak height of ESR-spectra [120 s] ([3]; 6.3 mM AF): 1781 | Peak height of ESR-spectra [300 s] ([3]; 6.3 mM AF): 1900 | IP hours (Induction Period) [4]: 32,0 hours | inhibition of enzyme activity by end-product [5]: not inhibited | oxygen consumption curve [6]: lag-phase is observed | oxidation by air-level of oxygen [7]: can slowly be oxidized
